From PMC10221159, “Investigation of N-Acetyltransferase 2-Mediated Drug Interactions of Amifampridine: In Vitro and In Vivo Evidence of Drug Interactions with Acetaminophen” (Pharmaceutics, 2023)
Read-outs that look alike come from different tables or passages of the source.

Tests used:
[1] = In vitro metabolic profile of amifampridine (3-N-acetylamifampridine formation) in rat liver S9 fraction; type: in vitro ADME
Method: An in vitro metabolic study was performed to investigate the metabolic profile of amifampridine in the rat liver S9 fraction. The reaction mixture, which consisted of rat liver S9 fraction (2 mg/mL protein) and 2 mM acetyl-CoA in potassium phosphate buffer, was prepared and incubated for 5 min in a thermal mixer (200 oscillations/min) at 37 °C. Then, amifampridine was added to the reaction mixture to make the final concentrations of amifampridine at 2, 10, 20, 50, 100, 500, and 1000 μM. After further incubation for 15 min at 37 °C, 50 μL of the sample was transferred into the tube containing 200 μL of ice-cold potassium phosphate buffer and mixed by vortexing. An amount of 50 μL of the mixture was then transferred into the tube containing 100 μL of internal standard (IS; 5 ng/mL ondansetron in acetonitrile), followed by vortexing and centrifugation at 14,000 rpm for 15 min at 4 °C. The supernatant was transferred into vials for HPLC-tandem mass spectrometry (MS/MS) analysis and the concentration of 3-N-acetylamifampridine was determined.
The Vm and Km values, Michaelis–Menten parameters, were determined by linear regression using Lineweaver–Burk equation, as follows: 1/v=Km/Vmax×1/S+1/Vmax where v is the rate of amifampridine metabolism to 3-N-acetylamifampridine in the S9 fraction, [S] is the concentration of amifampridine, Vmax is the maximum metabolic rate of amifampridine, and Km is the concentration of amifampridine at half Vmax. The intrinsic clearance (CLint) was calculated using Vmax/Km, with the assumption that Km is much greater than [S], as is usual in clinical practice.

[2] = In vivo pharmacokinetic interaction study in rats (plasma); set-up: species or system rat; conditions: oral amifampridine 2 mg/kg; for AUC(0-inf) / AUC(0-t) / CL/F / Cmax / MRT / Tmax / Vd/F / half-life / CL renal: male, Sprague-Dawley, rat, po, 2 mg/kg; for AUC(0-inf) / AUC(0-t) / CL/F / Cmax / MRT / Tmax / Vd/F / half-life: plasma; for CL renal: urine and plasma, renal clearance
Method: Male Sprague Dawley (SD) rats (7–8 weeks old, 260–330 g) were purchased from Orient Bio, Inc. (Seongnam, Korea). The rats were housed under a light/dark cycle for 12 h and were left for at least a week before the experiment to adapt to the laboratory environment. Water and food were provided ad libitum. The rats were fasted overnight with free access to water prior to pharmacokinetic studies. The protocols for animal experiments were approved in accordance with the Guidelines for Animal Care and Use of Gachon University (approval no.: GIACUC-R2021006; 13 May 2021).
The rats were anesthetized with a mixture of Rompun and Zoletil by intramuscular injection and received an intraperitoneal injection of vehicle (40:60 PEG400:normal saline; n = 8) or 100 mg/kg acetaminophen (n = 8). After 10 min, 2 mg/kg amifampridine (dissolved in saline) was administered orally. Blood samples were collected at 0, 5, 15, 30, 60, 90, 120, 240, and 360 min and centrifuged at 14,000 rpm for 15 min at 4 °C. For analysis of amifampridine and 3-N-acetylamifampridine, 50 μL of plasma samples was mixed with 100 μL IS solution (5 ng/mL ondansetron in acetonitrile) and the mixture was vortexed followed by centrifugation at 14,000 rpm for 15 min at 4 °C. For the analysis of acetaminophen, 200 μL of IS (tolbutamide 200 ng/mL in methanol) was added to the plasma samples which were diluted 10-fold using the blank plasma and then vortexed for one minute. Further, the samples were centrifuged at 14,000 rpm for 15 min at 4 °C. The supernatants were transferred to LC vials for quantification.
Non-compartment analysis (NCA) was performed to calculate the pharmacokinetic parameters for the in vivo study using WinNonlin (Version 8.3. (Pharsight Corporation, Mountain View, CA, USA)). The area under the plasma concentration–time curve from time 0 to infinity (AUCinf) was calculated by the linear trapezoidal method and standard extrapolation using λ, where λ represents the slope of the terminal phase in a semi-log graph for plasma concentration–time profiles. Renal clearance (CLr) was determined by dividing the accumulated amount of drug excreted in the urine by AUCinf.

[3] = set-up: method as in PMID 25692017; conditions: NAT2 slow vs fast acetylators; cited from earlier work
[4] = Urinary excretion of amifampridine and 3-N-acetylamifampridine in rats; type: in vivo, rat; conditions: Sprague Dawley, rat, urine, oral, 2 mg/kg, 24 h, oral amifampridine 2 mg/kg, read-out: total urinary recovery
Method: Urine samples were collected at intervals of 0–4, 4–8, and 8–24 h after the administration of amifampridine to control and acetaminophen-treated rats (n = 6), as described above, and were diluted 500-fold with potassium phosphate buffer. An amount of 200 μL of IS was then added to the samples and vortexed for a minute. After centrifugation at 14,000 rpm for 15 min at 4 °C, the supernatant was transferred into vials for quantification of amifampridine and 3-N-acetylamifampridine.

[5] = Tissue distribution of amifampridine and 3-N-acetylamifampridine in rats; type: in vivo, rat; conditions: for Kp at 1 h: rat, 60 min after oral amifampridine 2 mg/kg
Method: To investigate the effects of acetaminophen on the tissue distribution of amifampridine and 3-N-acetylamifampridine, rats were sacrificed at 60 min after administration of amifampridine in control and acetaminophen-treated rats (n = 6) as mentioned above, and the tissues, including liver, kidney, heart, lungs, spleen, brain, and muscle tissues, were obtained. Tissue samples were homogenized using a Wheaton^TM Dounce tissue grinder (Wheaton Millipore, Billerica, MA, USA) after adding a three-fold volume of PBS. An amount of 100 μL of tissue homogenates was transferred to the tube and 200 μL of IS solution was then added and vortexed followed by centrifugation at 14,000 rpm for 15 min at 4 °C. The supernatants were transferred to LC vials for quantification. For muscle samples, the supernatant was concentrated using a desiccator and reconstituted with the mobile phase solvent.

[6] = acetaminophen-treated (100 mg/kg) vs control rats
[7] = acetaminophen-treated group (100 mg/kg ip)
[8] = 60 min, acetaminophen-treated vs control rats

Vmax ([1]; 3-N-acetylamifampridine formation, rat liver S9, Lineweaver–Burk plot): 5130 ± 1100 pmol/min/mg protein
intrinsic clearance in liver S9 fraction ([1]; liver S9 fraction, Vmax/Km, rat liver S9, read-out: CLint): 78 ± 11 µL/min/mg
Km at 15 min ([1]; rat liver S9 fraction, 3-N-acetylamifampridine formation, rat liver S9 (2 mg/mL protein), Lineweaver–Burk plot): 66.6 ± 24.2 µM
increase in AUCinf [2, 6]: 185.64%
increase in Cmax [2, 6]: 208.34%
AUC(0-inf) [2, 7]: 434 ng·h/mL
AUC(0-t) [2, 7]: 414 ng·h/mL
CL/F [2, 7]: 81.7 ± 21.2 mL/min/kg
Cmax [2, 7]: 200 ± 100 ng/mL
MRT [2, 7]: 2.08 h
Tmax [2, 7]: 1 h
Vd/F [2, 7]: 9.83 ± 4.69 L/kg
half-life [2, 7]: 1.36 ± 0.416 h
AUC(0-inf) ([2]; control group): 152 ng·h/mL
AUC(0-t) ([2]; control group): 141 ng·h/mL
CL/F ([2]; control group): 225 ± 38.3 mL/min/kg
Cmax ([2]; control group): 70 ± 20 ng/mL
MRT ([2]; control group): 2.29 h
Tmax ([2]; control group): 0.781 h
Vd/F ([2]; control group): 26.9 L/kg
half-life ([2]; control group): 1.4 ± 0.352 h
CL renal [2, 7]: 3.87 ± 0.91 mL/min
CL renal ([2]; control group): 4.89 ± 1.71 mL/min
dose excreted ([4]; acetaminophen-treated rats): 18.9%
dose excreted ([4]; control rats): 6.7%
increase of concentration in liver [5, 8]: 270.26%
increase of concentration in muscle [5, 8]: 413.11%
increase of concentration in spleen [5, 8]: 265.17%
Kp at 1 h ([5]; Sprague Dawley, brain, acetaminophen 100 mg/kg, read-out: Tissue partition coefficient (Kp), Brain): 0.1
Kp at 1 h ([5]; Sprague Dawley, brain, control, read-out: Tissue partition coefficient (Kp), Brain): 0.1 ± 0.3
Kp at 1 h ([5]; Sprague Dawley, heart, acetaminophen 100 mg/kg, read-out: Tissue partition coefficient (Kp), Heart): 0.7 ± 0.5
Kp at 1 h ([5]; Sprague Dawley, heart, control, read-out: Tissue partition coefficient (Kp), Heart): 0.6 ± 0.5
Kp at 1 h ([5]; Sprague Dawley, lungs, acetaminophen 100 mg/kg, read-out: Tissue partition coefficient (Kp), Lungs): 2.2 ± 2.8
Kp at 1 h ([5]; Sprague Dawley, lungs, control, read-out: Tissue partition coefficient (Kp), Lungs): 1.7 ± 1.1
Kp at 1 h ([5]; Sprague Dawley, spleen, acetaminophen 100 mg/kg, read-out: Tissue partition coefficient (Kp), Spleen): 1.6 ± 1
Kp at 1 h ([5]; Sprague Dawley, spleen, control, read-out: Tissue partition coefficient (Kp), Spleen): 1 ± 0.5
decrease of Kp in the kidneys ([5]; acetaminophen-treated vs control rats): 51%
Kp at 1 h ([5]; male, Sprague-Dawley, kidney, acetaminophen 100 mg/kg, read-out: Tissue partition coefficient (Kp), Kidney): 3.6 ± 0.4
Kp at 1 h ([5]; male, Sprague-Dawley, kidney, control, read-out: Tissue partition coefficient (Kp), Kidney): 7.4 ± 2.7
Kp at 1 h ([5]; male, Sprague-Dawley, liver, acetaminophen 100 mg/kg, read-out: Tissue partition coefficient (Kp), Liver): 3 ± 1.5
Kp at 1 h ([5]; male, Sprague-Dawley, liver, control, read-out: Tissue partition coefficient (Kp), Liver): 3.8 ± 2.6
Kp at 1 h ([5]; male, Sprague-Dawley, muscle, acetaminophen 100 mg/kg, read-out: Tissue partition coefficient (Kp), Muscle): 0.4 ± 0.2
Kp at 1 h ([5]; male, Sprague-Dawley, muscle, control, read-out: Tissue partition coefficient (Kp), Muscle): 0.5 ± 0.4
Structure (SMILES): Nc1ccncc1N [amifampridine]
AUC higher in slow acetylators than in fast acetylators [3]: 5–10 fold
Cmax higher in slow acetylators than in fast acetylators [3]: approximately 3.5 fold
higher frequency of drug-related treatment-emergent adverse events in slow than fast acetylators [3]: more than 10 fold
